Values quoted from earlier work as cited in patent publication US20090318548A1, “PARA-QUINOL DERIVATIVES AND METHODS OF STEREO SELECTIVELY SYNTHESIZING AND USING SAME” (UNIVERSITY OF NORTHERN BRITISH COLUMBIA, priority 2006, published 2009).

Experiments:
[1] = biological target: POLO-like kinase 1 (Plk1) enzyme (Homo sapiens, UniProt P53350)
Bacillus subtilis YycG = Bacillus subtilis YycG (Bacillus subtilis, UniProt Q45614); conditions: for inhibition of Bacillus subtilis YycG (comparative experiments): established antibiotics as comparators
Bacillus subtilis YycG, sequence (Q45614 whole entry): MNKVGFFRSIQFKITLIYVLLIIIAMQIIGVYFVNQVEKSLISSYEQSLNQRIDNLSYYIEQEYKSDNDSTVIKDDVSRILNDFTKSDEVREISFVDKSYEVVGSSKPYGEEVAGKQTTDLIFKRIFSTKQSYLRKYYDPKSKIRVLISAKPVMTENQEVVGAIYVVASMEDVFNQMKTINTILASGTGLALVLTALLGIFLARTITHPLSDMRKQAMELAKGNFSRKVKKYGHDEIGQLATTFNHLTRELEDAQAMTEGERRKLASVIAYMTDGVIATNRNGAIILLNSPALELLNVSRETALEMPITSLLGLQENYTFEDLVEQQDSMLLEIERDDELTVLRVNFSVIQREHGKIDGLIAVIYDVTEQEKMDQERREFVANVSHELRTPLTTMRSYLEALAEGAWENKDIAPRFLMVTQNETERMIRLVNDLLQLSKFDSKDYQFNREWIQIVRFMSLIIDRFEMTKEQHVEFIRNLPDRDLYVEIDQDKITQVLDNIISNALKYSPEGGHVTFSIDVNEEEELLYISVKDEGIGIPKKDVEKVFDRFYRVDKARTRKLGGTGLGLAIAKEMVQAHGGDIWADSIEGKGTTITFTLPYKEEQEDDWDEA

[2] = biological target: T1, YycG from Staphylococcus aureus (Staphylococcus aureus, UniProt Q2G2U4); conditions: read-out: IC50, inhibition of YycG
T1 sequence (Q2G2U4 1-608): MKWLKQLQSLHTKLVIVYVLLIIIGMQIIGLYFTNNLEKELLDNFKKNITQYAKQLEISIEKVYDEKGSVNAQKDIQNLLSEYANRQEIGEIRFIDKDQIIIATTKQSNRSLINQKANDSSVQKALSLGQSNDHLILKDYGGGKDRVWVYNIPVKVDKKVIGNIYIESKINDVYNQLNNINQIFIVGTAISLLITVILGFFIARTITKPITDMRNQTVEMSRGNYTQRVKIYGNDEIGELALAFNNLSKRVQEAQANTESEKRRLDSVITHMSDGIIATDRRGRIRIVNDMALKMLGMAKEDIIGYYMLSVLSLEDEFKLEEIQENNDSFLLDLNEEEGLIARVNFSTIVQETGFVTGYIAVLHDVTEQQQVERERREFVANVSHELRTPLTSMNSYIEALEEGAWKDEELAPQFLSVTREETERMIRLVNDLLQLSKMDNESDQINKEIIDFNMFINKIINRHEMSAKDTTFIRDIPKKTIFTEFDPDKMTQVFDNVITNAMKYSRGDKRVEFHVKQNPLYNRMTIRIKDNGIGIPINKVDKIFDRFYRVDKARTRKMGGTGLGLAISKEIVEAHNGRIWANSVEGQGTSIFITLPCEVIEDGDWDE

POLO-like kinase 1 (Plk1) enzyme, sequence (P53350 whole entry, species assumed): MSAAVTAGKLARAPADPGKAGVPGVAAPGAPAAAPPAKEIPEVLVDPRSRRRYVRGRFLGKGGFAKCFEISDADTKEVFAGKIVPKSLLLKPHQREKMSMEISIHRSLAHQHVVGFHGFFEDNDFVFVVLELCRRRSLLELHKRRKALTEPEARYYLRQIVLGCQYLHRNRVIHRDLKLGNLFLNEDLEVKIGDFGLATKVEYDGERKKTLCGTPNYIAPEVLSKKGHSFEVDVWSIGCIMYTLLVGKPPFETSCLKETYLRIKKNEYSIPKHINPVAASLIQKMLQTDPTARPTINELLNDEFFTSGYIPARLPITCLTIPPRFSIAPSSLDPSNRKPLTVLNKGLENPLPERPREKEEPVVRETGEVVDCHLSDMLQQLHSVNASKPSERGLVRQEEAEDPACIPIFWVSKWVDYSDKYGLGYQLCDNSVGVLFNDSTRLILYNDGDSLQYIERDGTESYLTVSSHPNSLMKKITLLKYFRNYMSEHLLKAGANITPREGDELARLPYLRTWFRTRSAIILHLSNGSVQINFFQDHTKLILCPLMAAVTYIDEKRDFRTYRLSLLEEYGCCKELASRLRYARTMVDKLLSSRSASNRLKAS

Structure (SMILES) | inhibition of Bacillus subtilis YycG (comparative experiments) (Bacillus subtilis YycG) | other results
CCCCCCC(C)/C=C(C)/C=C/C(=O)NC1CC2(OC1O)C1OC1C(O)C1OC12 (stereo not drawn) [Aranorosinol A] | – | inhibition of Plk1 enzyme [1]: 118 µM
Cc1nnc(SCC2=C(C(=O)O)N3C(=O)[C@@H](NC(=O)Cn4cnnn4)[C@H]3SC2)s1 [cefazolin] | negligible inhibition | –
NCC[C@H](O)C(=O)N[C@@H]1C[C@H](N)[C@@H](O[C@H]2O[C@H](CN)[C@@H](O)[C@H](O)[C@H]2O)[C@H](O)[C@H]1O[C@H]1O[C@H](CO)[C@@H](O)[C@H](N)[C@H]1O [amikacin] | negligible inhibition | –
CCCCCCC(C)/C=C(C)/C=C/C(=O)N[C@H]1CC2(O[C@H]1O)[C@@H]1O[C@@H]1C(O)(CC(C)=O)[C@@H]1O[C@@H]12 (stereo partly drawn) [Aranorosinol B] | – | IC50 (Bacillus subtilis YycG; YycG from Bacillus subtilis, read-out: IC50, inhibition of YycG): 223 µM; IC50 [2]: 211 µM
CC[C@H]1OC(=O)[C@H](C)[C@@H](O[C@H]2C[C@@](C)(OC)[C@@H](O)[C@H](C)O2)[C@H](C)[C@@H](O[C@@H]2O[C@H](C)C[C@H](N(C)C)[C@H]2O)[C@](C)(O)C[C@@H](C)C(=O)[C@H](C)[C@@H](O)[C@]1(C)O [erythromycin] | negligible inhibition | –
